Experimental data: US20250049033A1, “PESTICIDALLY ACTIVE PYRIDAZINONE COMPOUNDS” (SYNGENTA CROP PROTECTION AG, priority 2021, published 2025)

Columns and labels:
Type in all cases: in vivo
Myzus persicae [1] = test: Activity against Myzus persicae (green peach aphid), intrinsic activity; settings: 120 h, test rate 12 ppm, 5 days after infestation, sucrose solution through Parafilm
Description: Example B6: Activity Against Myzus persicae (Green Peach Aphid). Intrinsic Activity
Test compounds prepared from 10′000 ppm DMSO stock solutions were applied by pipette into 24-well microtiter plates and mixed with sucrose solution. The plates were closed with a stretched Parafilm. A plastic stencil with 24 holes was placed onto the plate and infested pea seedlings were placed directly on the Parafilm. The infested plate was closed with a gel blotting paper and another plastic stencil and then turned upside down. The samples were assessed for mortality 5 days after infestation.

Myzus persicae [2] = test: Activity against Myzus persicae (green peach aphid), feeding/contact activity; settings: foliar, 144 h, application rate 200 ppm, 6 days after infestation, sunflower leaf discs, mixed ages
Protocol: Example B5: Activity Against Myzus persicae (Green Peach Aphid). Feeding/Contact Activity
Sunflower leaf discs were placed onto agar in a 24-well microtiter plate and sprayed with aqueous test solutions prepared from 10′000 ppm DMSO stock solutions. After drying, the leaf discs were infested with an aphid population of mixed ages. The samples were assessed for mortality 6 days after infestation.

Diabrotica balteata = test: Activity against Diabrotica balteata (corn root worm), maize sprouts, L2 larvae; settings: 96 h, application rate 200 ppm, 4 days after infestation, vs untreated, read-out: control in at least one of the two categories (mortality or growth inhibition)
Protocol: Example B2: Activity Against Diabrotica balteata (Corn Root Worm)
Maize sprouts placed onto an agar layer in 24-well microtiter plates were treated with aqueous test solutions prepared from 10′000 ppm DMSO stock solutions by spraying. After drying, the plates were infested with L2 larvae (6 to 10 per well). The samples were assessed for mortality and growth inhibition in comparison to untreated samples 4 days after infestation.

Plutella xylostella = test: Activity against Plutella xylostella (diamond back moth), artificial diet, eggs; settings: 192 h, application rate 200 ppm, 8 days after infestation, vs untreated, read-out: control in at least one of the two categories (mortality or growth inhibition)
Protocol: Example B7: Activity Against Plutella xylostella (Diamond Back Moth)
24-well microtiter plates with artificial diet were treated with aqueous test solutions prepared from 10′000 ppm DMSO stock solutions by pipetting. After drying, Plutella eggs were pipetted through a plastic stencil onto a gel blotting paper and the plate was closed with it. The samples were assessed for mortality and growth inhibition in comparison to untreated samples 8 days after infestation. The following compounds gave an effect of at least 80% control in at least one of the two categories (mortality or growth inhibition) at an application rate of 200 ppm: P1, P2, P3, P4, P6, P7, P8, P9, P10, P11, P12, P13, P14, P15, P16, P17, P18, P19, P20, P21, P22, P23, P24, P25, P26, P27.

Chilo suppressalis = test: Activity against Chilo suppressalis (striped rice stemborer), artificial diet, L2 larvae; settings: 144 h, application rate 200 ppm, 6 days after infestation, vs untreated, read-out: control in at least one of the three categories (mortality, anti-feedant effect, or growth inhibition)
Protocol: Example B1: Activity Against Chilo suppressalis (Striped Rice Stemborer)
24-well microtiter plates with artificial diet were treated with aqueous test solutions prepared from 10′000 ppm DMSO stock solutions by pipetting. After drying, the plates were infested with L2 larvae (6-8 per well). The samples were assessed for mortality, anti-feeding effect, and growth inhibition in comparison to untreated samples 6 days after infestation. Control of Chilo suppressalis by a test sample is given when at least one of the categories mortality, anti-feedant effect, and growth inhibition is higher than the untreated sample.

Spodoptera littoralis = test: Activity against Spodoptera littoralis (Egyptian cotton leaf worm), cotton leaf discs, L1 larvae; settings: foliar, 72 h, application rate 200 ppm, 3 days after infestation, vs untreated, read-out: control in at least one of the three categories (mortality, anti-feedant effect, or growth inhibition)
Protocol: Example B8: Activity Against Spodoptera littoralis (Egyptian Cotton Leaf Worm)
Cotton leaf discs were placed onto agar in 24-well microtiter plates and sprayed with aqueous test solutions prepared from 10′000 ppm DMSO stock solutions. After drying the leaf discs were infested with five L1 larvae. The samples were assessed for mortality, anti-feeding effect, and growth inhibition in comparison to untreated samples 3 days after infestation. Control of Spodoptera littoralis by a test sample is given when at least one of the categories mortality, anti-feedant effect, and growth inhibition is higher than the untreated sample.

Euschistus heros = test: Activity against Euschistus heros (neotropical brown stink bug), soybean leaves, N2 nymphs; settings: 120 h, application rate 200 ppm, 5 days after infestation, vs untreated, read-out: effect in at least one of the two categories (mortality or growth inhibition)
Protocol: Example B3: Activity Against Euschistus heros (Neotropical Brown Stink Bug)
Soybean leaves on agar in 24-well microtiter plates were sprayed with aqueous test solutions prepared from 10′000 ppm DMSO stock solutions. After drying the leaves were infested with N2 nymphs. The samples were assessed for mortality and growth inhibition in comparison to untreated samples 5 days after infestation.

CC(Nc1ncnc2c(C(F)(F)F)cc(Cl)cc12)c1nccnc1-c1ccc(=O)n(C)n1 (stereo not drawn) [P10, 6-[3-[1-[[6-chloro-8-(trifluorometh-yl)quinazolin-4-yl]amino]ethyl]pyr-azin-2-yl]-2-methyl-pyridazin-3-one]
≥ 80%: mortality at 12 ppm (Myzus persicae [1]) | mortality at 200 ppm (Myzus persicae [2]) | percent control (mortality or growth inhibition) at 200 ppm (Diabrotica balteata) | percent control (mortality or growth inhibition) at 200 ppm (Plutella xylostella) | percent control (mortality, anti-feedant effect or growth inhibition) at 200 ppm (Chilo suppressalis) | percent control (mortality, anti-feedant effect or growth inhibition) at 200 ppm (Spodoptera littoralis) | percent effect (mortality or growth inhibition) at 200 ppm (Euschistus heros)

C[C@H](Nc1ncnc2c(C(F)(F)F)cc(Cl)cc12)c1ncnn1C1=NN(C)C(=O)CC1 [P9, 6-[5-[(1S)-1-[[6-chloro-8-(trifluoro-methyl)quinazolin-4-yl]amino]ethyl]-1,2,4-triazol-1-yl]-2-methyl-4,5-di-hydropyridazin-3-one]
≥ 80%: mortality at 12 ppm (Myzus persicae [1]) | mortality at 200 ppm (Myzus persicae [2]) | percent control (mortality or growth inhibition) at 200 ppm (Diabrotica balteata) | percent control (mortality or growth inhibition) at 200 ppm (Plutella xylostella) | percent control (mortality, anti-feedant effect or growth inhibition) at 200 ppm (Chilo suppressalis) | percent control (mortality, anti-feedant effect or growth inhibition) at 200 ppm (Spodoptera littoralis) | percent effect (mortality or growth inhibition) at 200 ppm (Euschistus heros)

CCn1nc(-n2ncnc2[C@H](C)Nc2ncnc3c(C(F)(F)F)cc(Cl)cc23)ccc1=O [P19, 6-[5-[(1S)-1-[[6-chloro-8-(trifluoro-methyl)quinazolin-4-yl]amino]ethyl]-1,2,4-triazol-1-yl]-2-ethyl-pyridazin-3-one]
≥ 80%: mortality at 12 ppm (Myzus persicae [1]) | mortality at 200 ppm (Myzus persicae [2]) | percent control (mortality or growth inhibition) at 200 ppm (Diabrotica balteata) | percent control (mortality or growth inhibition) at 200 ppm (Plutella xylostella) | percent control (mortality, anti-feedant effect or growth inhibition) at 200 ppm (Chilo suppressalis) | percent control (mortality, anti-feedant effect or growth inhibition) at 200 ppm (Spodoptera littoralis) | percent effect (mortality or growth inhibition) at 200 ppm (Euschistus heros)

C[C@@H](c1ncnn1C1=NN(C)C(=O)CC1)N(C)c1ncnc2c(C(F)(F)F)cc(Cl)cc12 [P24]
≥ 80%: mortality at 12 ppm (Myzus persicae [1]) | mortality at 200 ppm (Myzus persicae [2]) | percent control (mortality or growth inhibition) at 200 ppm (Diabrotica balteata) | percent control (mortality or growth inhibition) at 200 ppm (Plutella xylostella) | percent control (mortality, anti-feedant effect or growth inhibition) at 200 ppm (Chilo suppressalis) | percent control (mortality, anti-feedant effect or growth inhibition) at 200 ppm (Spodoptera littoralis) | percent effect (mortality or growth inhibition) at 200 ppm (Euschistus heros)

C[C@H](Nc1ncnc2c(Cl)cc(I)cc12)c1ncnn1-c1ccc(=O)n(C)n1 [P20, 6-[5-[(1S)-1-[(8-chloro-6-iodo-quinazolin-4-yl)-amino]ethyl]-1,2,4-triazol-1-yl]-2-methyl-pyridazin-3-one]
≥ 80%: mortality at 200 ppm (Myzus persicae [2]) | percent control (mortality or growth inhibition) at 200 ppm (Plutella xylostella)

C[C@H](Nc1ncnc2c(C(F)(F)F)cc(C(F)(F)F)cc12)c1ncnn1-c1ccc(=O)n(C)n1 [P3, 6-[5-[(1S)-1-[[6,8-bis(trifluoromethyl)quinazolin-4-yl]amino]ethyl]-1,2,4-triazol-1-yl]-2-methyl-pyridazin-3-one]
≥ 80%: mortality at 12 ppm (Myzus persicae [1]) | mortality at 200 ppm (Myzus persicae [2]) | percent control (mortality or growth inhibition) at 200 ppm (Diabrotica balteata) | percent control (mortality or growth inhibition) at 200 ppm (Plutella xylostella) | percent control (mortality, anti-feedant effect or growth inhibition) at 200 ppm (Chilo suppressalis) | percent control (mortality, anti-feedant effect or growth inhibition) at 200 ppm (Spodoptera littoralis) | percent effect (mortality or growth inhibition) at 200 ppm (Euschistus heros)

CC(c1nccnc1-c1ccc(=O)n(C)n1)N(C)c1ncnc2c(C(F)(F)F)cc(Cl)cc12 (racemic) [P21, 6-[3-[1-[[6-chloro-8-(trifluoromethyl)quinazolin-4-yl]-methyl-amino]ethyl]pyrazin-2-yl]-2-methyl-pyridazin-3-one]
≥ 80%: mortality at 12 ppm (Myzus persicae [1]) | mortality at 200 ppm (Myzus persicae [2]) | percent control (mortality or growth inhibition) at 200 ppm (Diabrotica balteata) | percent control (mortality or growth inhibition) at 200 ppm (Plutella xylostella) | percent control (mortality, anti-feedant effect or growth inhibition) at 200 ppm (Chilo suppressalis) | percent control (mortality, anti-feedant effect or growth inhibition) at 200 ppm (Spodoptera littoralis) | percent effect (mortality or growth inhibition) at 200 ppm (Euschistus heros)

C[C@H](Nc1nc(Cl)nc2c(Cl)cc(C(F)(F)F)cc12)c1ncnn1-c1ccc(=O)n(C)n1 [P4, 6-[5-[(1S)-1-[[2,8-dichloro-6-(trifluoromethyl)quinazolin-4-yl]amino]ethyl]-1,2,4-triazol-1-yl]-2-methyl-pyridazin-3-one]
≥ 80%: mortality at 200 ppm (Myzus persicae [2]) | percent control (mortality or growth inhibition) at 200 ppm (Diabrotica balteata) | percent control (mortality or growth inhibition) at 200 ppm (Plutella xylostella) | percent control (mortality, anti-feedant effect or growth inhibition) at 200 ppm (Chilo suppressalis)

C[C@H](Nc1ncnc2c(C(F)(F)F)cc(C(F)(F)F)cc12)c1ncnn1C1=NN(C)C(=O)CC1 [P7, 6-[5-[(1S)-1-[[6,8-bis(trifluoromethyl)quinazolin-4-yl]amino]ethyl]-1,2,4-triazol-1-yl]-2-methyl-4,5-dihydropyridazin-3-one]
≥ 80%: mortality at 12 ppm (Myzus persicae [1]) | mortality at 200 ppm (Myzus persicae [2]) | percent control (mortality or growth inhibition) at 200 ppm (Diabrotica balteata) | percent control (mortality or growth inhibition) at 200 ppm (Plutella xylostella) | percent control (mortality, anti-feedant effect or growth inhibition) at 200 ppm (Chilo suppressalis) | percent control (mortality, anti-feedant effect or growth inhibition) at 200 ppm (Spodoptera littoralis) | percent effect (mortality or growth inhibition) at 200 ppm (Euschistus heros)

CCn1nc(-n2ncnc2[C@H](C)N(C)c2ncnc3c(C(F)(F)F)cc(Cl)cc23)ccc1=O [P15, 6-[5-[(1S)-1-[[6-chloro-8-(trifluoro-methyl)quinazolin-4-yl]-methyl-amino]ethyl]-1,2,4-triazol-1-yl]-2-ethyl-pyrid-azin-3-one]
≥ 80%: mortality at 12 ppm (Myzus persicae [1]) | mortality at 200 ppm (Myzus persicae [2]) | percent control (mortality or growth inhibition) at 200 ppm (Diabrotica balteata) | percent control (mortality or growth inhibition) at 200 ppm (Plutella xylostella) | percent control (mortality, anti-feedant effect or growth inhibition) at 200 ppm (Chilo suppressalis) | percent control (mortality, anti-feedant effect or growth inhibition) at 200 ppm (Spodoptera littoralis) | percent effect (mortality or growth inhibition) at 200 ppm (Euschistus heros)

CCn1nc(-n2ncnc2[C@H](C)Nc2ncnc3c(Cl)cc(C(F)(F)F)cc23)ccc1=O [P17, 6-[5-[(1S)-1-[[8-chloro-6-(trifluoromethyl)quinazolin-4-yl]amino]ethyl]-1,2,4-triazol-1-yl]-2-ethyl-pyridazin-3-one]
≥ 80%: mortality at 12 ppm (Myzus persicae [1]) | mortality at 200 ppm (Myzus persicae [2]) | percent control (mortality or growth inhibition) at 200 ppm (Diabrotica balteata) | percent control (mortality or growth inhibition) at 200 ppm (Plutella xylostella) | percent control (mortality, anti-feedant effect or growth inhibition) at 200 ppm (Chilo suppressalis) | percent control (mortality, anti-feedant effect or growth inhibition) at 200 ppm (Spodoptera littoralis) | percent effect (mortality or growth inhibition) at 200 ppm (Euschistus heros)

C[C@@H](c1ncnn1-c1ccc(=O)n(C)n1)N(C)c1ncnc2c(Br)cc(Br)cc12 [P14, 6-[5-[(1S)-1-[(6,8-dibromoquinazolin-4-yl)-methyl-amino]ethyl]-1,2,4-triazol-1-yl]-2-methyl-pyridazin-3-one]
≥ 80%: mortality at 12 ppm (Myzus persicae [1]) | mortality at 200 ppm (Myzus persicae [2]) | percent control (mortality or growth inhibition) at 200 ppm (Diabrotica balteata) | percent control (mortality or growth inhibition) at 200 ppm (Plutella xylostella) | percent control (mortality, anti-feedant effect or growth inhibition) at 200 ppm (Spodoptera littoralis) | percent effect (mortality or growth inhibition) at 200 ppm (Euschistus heros)

C[C@H](Nc1ncnc2c(C(F)(F)F)cc(Cl)cc12)c1ncnn1-c1ccc(=O)n(C)n1 [P2, 6-[5-[(1S)-1-[[6-chloro-8-(trifluoromethyl)quinazolin-4-yl]amino]ethyl]-1,2,4-triazol-1-yl]-2-methyl-pyridazin-3-one]
≥ 80%: mortality at 200 ppm (Myzus persicae [2]) | percent control (mortality or growth inhibition) at 200 ppm (Diabrotica balteata) | percent control (mortality or growth inhibition) at 200 ppm (Plutella xylostella) | percent control (mortality, anti-feedant effect or growth inhibition) at 200 ppm (Chilo suppressalis) | percent control (mortality, anti-feedant effect or growth inhibition) at 200 ppm (Spodoptera littoralis) | percent effect (mortality or growth inhibition) at 200 ppm (Euschistus heros)
